Results taken from US20060008864A1, “Methods to measure compound specificity” (priority 2004, published 2006).
pEC50, pKd: −log10 of the molar value. Counter-ions that a name gives are not always drawn. Like-named read-outs stand apart in the source and are kept apart here.

How the values were obtained:
[1] = tested on: HeLa CCT (cancer cell tubulin); experiment: Fluorescence (DAPI) tubulin polymerization microassay, HeLa cancer cell tubulin; assay type: biochemical; conditions: for Tubulin Ligand Index (TLI) ratio, HeLa: BBT EC50 divided by HeLa CCT EC50; for pEC50: 2 mg/ml tubulin, enhancer format without glycerol, 50% of 20% glycerol control Vmax, read-out: EC50 using HeLa CCT
Source text: (§1) A plot of log10 of concentration (X-axis) and Percent Vmax (control) (Y-axis) is made for each compound.

[2] = tested on: MCF-7 CCT (cancer cell tubulin); experiment: Fluorescence (DAPI) tubulin polymerization microassay, MCF-7 cancer cell tubulin; conditions: BBT EC50 divided by MCF-7 CCT EC50
Description: Compounds were assayed in the standard glycerol containing (vinblastine and colchicine) or no glycerol containing (paclitaxel) formats. […] Twenty four micrograms of CCT in G-PEM with 10 uM DAPI plus glycerol (colchicine and vinblastine) or minus glycerol (paclitaxel) at 4° C. was pipetted into wells of the 384-well plate which contained 1.3 ul of 10× strength compound concentration and incubated at 37° C. Tubulin polymerization was detected by measuring the fluorescence of the solution (Ex 360 nm, Em 405 nm) over time. Each set of data, A through I, represents six duplicate polymerization assays from one experiment, the duplicates contain either a 20% glycerol control or one of five compound concentrations (0.1, 0.3, 1.0, 3.0 or 10 uM). Paclitaxel experiments were repeated n=3 for neuronal, n=5 for HeLa and n=2 for MCF-7. Vinblastine experiments were repeated n=2 for neuronal, n=5 for HeLa and n=2 for MCF-7. Colchicine experiments were repeated n=2 for neuronal, HeLa and MCF-7. […]
Using the conditions described in FIG. 9, we measured eleven taxol analogs against BBT and MCF-7 CCT. TLI's were calculated by the method described in FIG. 11. […]
A fluorescent plate reader is tuned to 360 nm excitation wavelength and 405 to 475 nm emission wavelength, a 384 well plate was placed into the machine and it was pre-warmed to 37° C.

[3] = target: Bovine brain tubulin (mainly isotypes βII and βIII); conditions: cited from earlier work
[4] = tested on: Bovine brain tubulin (BBT, neuronal tubulin); experiment: Fluorescence (DAPI) tubulin polymerization microassay, bovine brain tubulin; assay type: biochemical; conditions: 2 mg/ml tubulin, enhancer format without glycerol; 50% of 20% glycerol control Vmax; read-out: EC50 using neuronal tubulin
Source text: as §1

[5] = tested on: HeLa CCT (cancer cell tubulin); conditions: BBT IC50 divided by HeLa CCT IC50; IC50 estimated from 50% intercept of dose response curve; cited from earlier work

Row | pEC50 [1] | pEC50 [4] | Compound | Tubulin Ligand Index (TLI) ratio, HeLa [1] | Tubulin Ligand Index (TLI), BBT vs HeLa CCT, measured by Zentaris GmbH [5] | other results
1 |  |  | CC(=O)O[C@@]12CO[C@@H]1C[C@H](O)[C@@]1(C)C(=O)[C@H](O)C3=C(C)[C@@H](O)C[C@@](O)([C@@H](OC(=O)c4ccccc4)[C@H]21)C3(C)C [10-Deacetyl-baccatin-III] | < 0.01 |  | Tubulin Ligand Index (TLI) ratio, MCF-7 [2]: 0.28
2 |  |  | N=C(N)c1ccc(-c2cc3ccc(C(=N)N)cc3[nH]2)cc1 [DAPI, 4′, 6-diamidino-2-phenylindole-HCl] |  |  | pKd ([3]; bovine brain tubulin in the monomer form, read-out: Kd (affinity constant) for DAPI, monomer form): 4.37; pKd ([3]; bovine brain tubulin in the polymer form, read-out: Kd (affinity constant) for DAPI, polymer form): 5.22
3 | 6.82 | 6.85 | CC(=O)O[C@@]12CO[C@@H]1C[C@H](O)[C@@]1(C)C(=O)[C@H](O)C3=C(C)[C@@H](OC(=O)[C@H](O)[C@@H](NC(=O)OC(C)(C)C)c4ccccc4)C[C@@](O)([C@@H](OC(=O)c4ccccc4)[C@H]21)C3(C)C [docetaxel] | 0.93 |  | 
4 | 6.10 | 6.82 | CC(=O)O[C@H]1C(=O)[C@@]2(C)[C@H]([C@H](OC(=O)c3ccccc3)[C@]3(O)C[C@H](OC(=O)[C@H](O)[C@@H](NC(=O)c4ccccc4)c4ccccc4)C(C)=C1C3(C)C)[C@]1(OC(C)=O)CO[C@@H]1C[C@@H]2O [paclitaxel] |  |  | 
5 |  |  | CC[C@]1(O)C[C@@H]2CN(CCc3c([nH]c4ccccc34)[C@@](C(=O)OC)(c3cc4c(cc3OC)N(C)[C@H]3[C@@](O)(C(=O)OC)[C@H](OC(C)=O)[C@]5(CC)C=CCN6CC[C@]43[C@@H]65)C2)C1 [vinblastine] |  | 1.0 | 
6 |  |  | Disorazol E1 |  | 2.0 | 
